Source: patent US20100086518A1, “TREATMENT OF MELANOMA” (NOVARTIS AG, priority 2007, published 2010)
Read-outs that look alike come from different tables or passages of the source.

How the values were obtained:
[1] = system: human melanoma CHL-1 (wild type B-Raf) xenograft; assay type: in vivo; settings: day 25
Description: Animals. […] . Mice were implanted with subcutaneous ID chips upon arrival and then underwent at least 7 days of acclimatization prior to the study start. All animal studies were conducted in a facility accredited by the Association for Assessment and Accreditation of Laboratory Animal Care International and in accordance with all guidelines of the Institutional Animal Care and Use Committee and the Guide for The Care and Use of Laboratory Animals (National Research Council).
Cell culture for in vivo efficacy studies. […] The human melanoma cell line CHL-1 was cultured for 6 passages in DMEM media with low glutamine+10% FBS at 37° C. in a humidified atmosphere with 5% CO2.
The day of tumor cell implantation, tumor cells were harvested and resuspended in HBSS (A375 cells) or 50% HBSS+plus 50% Matrigel (CHL-1 cells; Becton Dickenson and Company, Franklin Lakes, N.J.) at 2.5×10^7 cells/mL. Cells were inoculated subcutaneously in the right flank at 5×10^6 cells/200 uL/mouse.
. The group sizes were 9 animals per group (A375 study) or 10 animals per group (CHL-1 study). […] . […] . […] Comparisons of the mean tumor volume in the treatment vs. the vehicle group were evaluated using a Student's two tailed t-test (Excel software).

[2] = system: melanoma-inhibitory activity (MIA) protein; assay: Plasma MIA levels in the CHL-1 study; assay type: in vivo, Nu/Nu mice; settings: 30 mg/kg and 80 mg/kg groups
Description: MIA ELISA Assay: Equal numbers of human melanoma and colorectal carcinoma cells (˜250,000 cells for each cell line) were seeded onto tissue culture plates and the culture medium for each cell line was collected 48 hr later. Levels of MIA in culture media or plasma were measured by a commercial single-step ELISA kit according to the manufacturer's protocol (Roche Diagnostics Corporation, Indianapolis, Ind.). MIA concentrations in test samples were calculated using a standard curve ranging from 3-37 ng/mL. When the MIA concentration exceeded the highest standard concentration, the samples were diluted 1:5 and assayed again to have the results fall within the linear range of the standard curve. Data were evaluated using the Student t-test (two-tailed distribution, two-sample unequal variance), using P≦0.05 as the level of significance.
In the CHL-1 study, plasma levels of the melanoma marker melanoma-inhibitory activity (MIA) protein secreted by melanoma cells were also measured.

[3] = system: other kinases in the PI3K/Akt and MAPK(K) pathways; settings: read-out: IC50 other kinases in the PI3K/Akt and MAPK(K) pathways; negligible activity
[4] = system: BRaf WT CHL-1 melanoma tumors
[5] = system: melanoma tumor cells MEXF 1765/3; assay: cells; settings: Homo sapiens
[6] = system: melanoma tumor cells MEXF 989/7; assay: cells; settings: Homo sapiens
[7] = system: melanoma tumor cells MEXF 1341/3; assay: cells; settings: Homo sapiens
[8] = system: melanoma tumor cells MEXF 672/3; assay: cells; settings: Homo sapiens
[9] = system: melanoma tumor cells MEXF 276/7; assay: cells; settings: Homo sapiens
[10] = system: melanoma tumor cells MEXF 514/12; assay: cells; settings: Homo sapiens
[11] = system: melanoma tumor cells MEXF 462/6; assay: cells; settings: Homo sapiens
[12] = system: bFGF-driven neovascularization; assay: In vivo FGF-mediated matrigel angiogenesis assay; settings: daily for 8 days
[13] = target: T1, VEGFR2/Flk1 (UniProt P35968); assay: VEGFR2 kinase assay (purified enzyme); assay type: biochemical; settings: read-out: IC50 VEGFR flk1
T1 construct: other: purified enzyme

[14] = Cmpd 1 30 mg/kg qd, carboplatin 50 mg/kg + paclitaxel 25 mg/kg 1x/wk

CN1CCN(c2ccc3nc(-c4c(N)c5c(F)cccc5[nH]c4=O)[nH]c3c2)CC1 [Compound 1, 4-amino-5-fluoro-3-[6-(4-methylpiperazin-1-yl)-1H-benzimidazol-2-yl]-1H-quinolin-2-one]
tumor growth inhibition (TGI) ([1]; 10 mpk p.o. daily): 64% | tumor growth inhibition (TGI) ([1]; 30 mpk p.o. daily): 73% | tumor growth inhibition (TGI) ([1]; 60 mpk p.o. daily): 89% | tumor growth inhibition (TGI) ([1]; 80 mpk p.o. daily): 87% | plasma MIA levels ([2]; day 8, vehicle […]): undetectable | plasma MIA levels ([2]; day 22): undetectable | IC50 [3]: > 10 µM | Clinical Observations ([4]; BAR = bright, alert, responsive, BWL = body weight loss): BAR | % Mean change in BW of initial [4, 14]: 4.3% | Max % TGI; day 14 [4, 14]: 52.51% | Mean of Tv on day 14 ([4]; Cmpd 1 30 mg/kg qd, carboplatin 50 mg/kg + paclitaxel 25 mg/kg 1x/wk, tumor volume in mm^3): 884 | T/C Observed (O) ([4]; day 14): 0.56 | IC50 ([5]; read-out: IC50 clonogenic, MEXF 1765/3): 2.58 µM | EC50 ([5]; read-out: relative EC50 soft agar clonogenic, 1765/3): 2.58 µM | IC50 ([6]; MEXF 989, read-out: IC50 clonogenic, MEXF 989/7): 2.54 µM | EC50 ([6]; MEXF 989, read-out: relative EC50 soft agar clonogenic, 989/7): 2.54 µM | IC50 ([7]; read-out: IC50 clonogenic, MEXF 1341/3): 2.24 µM | EC50 ([7]; read-out: relative EC50 soft agar clonogenic, 1341/3): 2.24 µM | IC50 ([8]; read-out: IC50 clonogenic, MEXF 672/3): 1.67 µM | EC50 ([8]; read-out: relative EC50 soft agar clonogenic, 672/3): 1.67 µM | IC50 ([9]; read-out: IC50 clonogenic, MEXF 276/7): 1.14 µM | EC50 ([9]; read-out: relative EC50 soft agar clonogenic, 276/7): 1.14 µM | IC50 ([10]; MEXF514, read-out: IC50 clonogenic, MEXF 514/12): 1.05 µM | EC50 ([10]; MEXF514, read-out: relative EC50 soft agar clonogenic, 514/12): 1.05 µM | IC50 ([11]; read-out: IC50 clonogenic, MEXF 462/6): 0.7 µM | EC50 ([11]; read-out: relative EC50 soft agar clonogenic, 462/6): 0.7 µM | hemoglobin level in Matrigel plugs versus unsupplemented Matrigel ([12]; all doses >10 mg/kg): less than the basal hemoglobin level | IC50 of inhibition of bFGF-driven neovascularization ([12]; oral, 3-100 mg/kg, hemoglobin in Matrigel plugs): 3 mg/kg
